Measured values reported in PubChem BioAssay AID540271 (Broad Institute, 2011).
Values joined by “and” are separate entries in the source; they are usually repeats but may differ in a detail not shown here. Identical values can stand only once. Active and inactive are the calls of the source. The rule behind the calls is not given here.

Test system: S. cerevisiae expressing PfHSP40, growth rescue, plate reader
Experiment: S cerevisiae expressing PfHSP40, growth rescue, cherry pick dose confirmatory, plate reader (AID 540271);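 note: yeast growth read after three days of incubation at 30 °C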

| Structure (SMILES) | AC50 |
| --- | --- |
| O=C(NNC(=O)c1cc(Cl)ccc1O)c1ccc(NS(=O)(=O)c2cccs2)cc1 | 5.61 µM |
| O=C(Oc1ccc(N(C(=O)c2ccncc2)S(=O)(=O)c2ccc(Cl)cc2)cc1)c1ccncc1 | 5.85 µM |
| COc1ccc(-c2oc3ccccc3c2C#Cc2cncn2C)cc1 | 4.94 µM |
| O/N=C(\c1ccc(Cl)cc1)c1cc2ccccc2o1 | 5.38 µM |
| CCOC(=O)c1ccc(N2C(=O)CC(N(C)CCc3ccc(OC)c(OC)c3)C2=O)cc1 (centres undefined) | 5.96 µM |
| COC(=O)c1ccc(N2C(=O)CC(N(C)CCc3ccc(OC)c(OC)c3)C2=O)cc1 (centres undefined) | 5.2 µM |
| O=C(NOC(=O)c1ccccc1)c1ccccc1 | 2.11 µM |
| CC(=O)NC(c1ccc(C)cc1)c1cc([N+](=O)[O-])c2cccnc2c1O (centres undefined) | 8.83 µM |
| Cc1[nH]n(-c2cccc3ccccc23)c(=O)c1/C=N/NC(=O)c1cccc([N+](=O)[O-])c1 | 1.48 µM |
| O/N=C/c1cc(Br)ccc1OCc1cccc(F)c1 | 6.89 µM |
| CCc1ccccc1OCC(=O)Nc1nc(-c2cccnc2)cs1 | 1.84 µM |
| C=C(C)COc1ccc(-c2[nH]ncc2-c2ccc(Br)cc2)c(O)c1 | 4.66 µM |
| CC(C)(C)c1ccc(-n2nc(C#N)c(Cl)cc2=O)cc1 | 6.03 µM |
| CCOc1ccc(N/N=C(/C#N)C(N)=O)cc1 | 4.1 µM |
| Cc1cccc(NS(=O)(=O)c2ccc(-c3cnc(C4CC4)o3)cc2)c1C | 5.32 µM |
| O=[N+]([O-])c1cc(C(F)(F)F)ccc1NCCc1c[nH]c2ccc(O)cc12 | 4.85 µM |
| COc1cc(C(=O)ON=C2C3CC4CC(C3)CC2C4)cc(OC)c1OC | 5.01 µM |
| COC(=O)COC(=O)c1ccccc1NC(=O)c1ccccc1 | 3.13 µM |
| CCCCNC(=S)N/N=C1\CCCCc2ccccc21 | 10.3 µM |
| Cc1csc2nc(O)c(C(=O)NCCCc3ccccc3)c(=O)n12 | 4.55 µM |

| Structure (SMILES) | AC50 |
| --- | --- |
| O=C(Cc1ccccc1F)Nc1nc(-c2ccc(F)c(F)c2)cs1 | 6.72 µM |
| COc1ccc(O)c(C(=O)CC(=O)c2ccc(F)cc2)c1 | 0.977 µM |
| O=P(Nc1cccnc1)(Oc1ccccc1Cl)Oc1ccccc1Cl | 6.5 µM |
| CC1=CC(=O)C=C(C)C1=NOS(=O)(=O)c1ccccc1 | 4.15 µM |
| CCCS(=O)(=O)c1c(S(=O)(=O)CCC)c2c(C)cccn2c1C(=O)N/N=C/c1cc(O)cc(O)c1 | 3.51 µM |
| O=C(CC1CC2CCC1C2)Nc1nc(-c2ccccn2)cs1 (centres undefined) | 5.1 µM |
| Nc1nc(-c2ccccc2)c(-c2ccc([N+](=O)[O-])cc2)s1 | 3.99 µM |
| O/N=C(\c1ccc(Cl)cc1Cl)c1ncc(C(F)(F)F)cc1Cl | 9.27 µM |
| O=C(Nc1ccccc1N1CCOCC1)c1cc2c(s1)CCCCC2 | 6.04 µM |
| COc1ccc2c(c1)OC[C@H]1[C@H]2N2C(=O)c3cc(OC)ccc3NC(=O)[C@@]2(C)[C@H]1c1ccccc1 | 4.84 µM |
| CCN(CC)C(=O)CSc1ncnc2sc(-c3ccccc3)cc12 | 8.72 µM |
| CC(=O)NC(c1cccc([N+](=O)[O-])c1)c1ccc2cccnc2c1O (centres undefined) | 3.95 µM |
| O=C(O)c1c(NC(=O)N2CCCC2)sc2c1CCCC2 | 3.42 µM |
| COc1ccc(OC)c2c1C(=O)C(Cl)=C(Cl)C2=O | 1.4 µM |
| O=c1c(O)cccc2cc(O)c(O)c(O)c12 | 3.63 µM |
| CCCC(C)Sc1nc2c([nH]1)c(=S)n(C)c(=O)n2C (centres undefined) | 8.18 µM |
| Oc1ccc(/C=N/Nc2ccc(C(F)(F)F)cn2)c(O)c1 | 2.14 µM |
| Cc1ccccc1CN(C)CCS(=O)(=O)c1cc(Cl)ccc1Cl | > 12 µM (inactive) |
| CC(=O)C1=C(c2cccc([N+](=O)[O-])c2)N(C(C)=O)n2c(C)nnc2S1 | 2.7 µM |
| O=C(N/N=C/c1cc(Br)ccc1O)c1ccccc1Cl | 4.83 µM |

| Structure (SMILES) | AC50 |
| --- | --- |
| Cn1ccsc1=NC(=O)c1ccc([N+](=O)[O-])o1 | > 12 µM (inactive) |
| O=NN(CCc1ccncc1)c1ccc(OCc2ccccc2)cc1 | 5.81 µM |
| CC(C)(c1cc(Br)c(O)c(Br)c1)c1cc(Br)c(O)c(Br)c1 | 8.13 µM |
| O=C(/C(=N/N=C/c1ccc(O)c(O)c1O)c1ccccc1)c1ccccc1 | 6.09 µM |
| CCCn1c2ccccc2c2cc(C(=O)O)ccc21 | 7.09 µM |
| CCCCOC(=O)/C=C/c1ccc(OC(=O)OC)c(OC(=O)OC)c1 | 5.54 µM |
| O=C(NCC1CC1(Cl)Cl)Nc1ccc(Cl)c(Cl)c1 (centres undefined) | 5.73 µM |
| CC(C)(C)c1cc(-c2nc(N)nc(N)n2)c(O)c(C(C)(C)C)c1 | 4.99 µM |
| CCCCC(=O)NC(c1ccc(OC)c(OC)c1)c1ccc2cccnc2c1O (centres undefined) | 1.83 µM |
| Cc1ccoc1C(=O)Nc1cccc(Oc2ccccc2)c1 | 2.85 µM |
| Cc1ccc(-c2cc(-c3ccc(C)cc3)[n+](-c3ccccc3)c(-c3ccc(C)cc3)c2)cc1 | 5.4 µM |
| C[n+]1c2cc(N)ccc2cc2ccc(N)cc21 | 1.82 µM and 1 µM |
| COc1cccc(CNC(=O)CSc2ccc(-c3ccccn3)nn2)c1 | 5.07 µM |
| C=C(C)COc1ccc(-c2[nH]ncc2-c2ccccc2)c(O)c1 | 5.52 µM |
| CCc1ccc(OCc2n[nH]c(=S)n2Cc2ccccc2)cc1 | 5.29 µM |
| Cc1cc(C(=O)N/N=C/c2ccc(O)c(O)c2O)c(C)n1-c1ccccc1 | 3.41 µM |
| O=C1N(c2ccc(Cl)cc2)C(c2cccnc2)N2CCCN12 (centres undefined) | 6.03 µM |
| Cc1cc(C)c(C(=O)CC(=O)c2cccnc2)c(C)c1 | 2.06 µM |
| O=C(Oc1c(Cl)cc(Cl)c2cccnc12)c1cccs1 | 1.94 µM |
